Experiments:
Assay type in all cases: in vivo
[1] = system: Triticum aestivum (TRZAW, winter wheat); experiment: Pre-emergence herbicidal evaluation (crop); conditions: 3 weeks after treatment
Outline: (§1)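 Soil-mixed seed sown in pots; spray immediately post-planting, aq. acetone, ~0.025–0.4 kg/ha; greenhouse, routine watering; visual score from 3 wk after treatment.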

[2] = system: Glycine max (GLXMA, soyabeans); experiment: Pre-emergence herbicidal evaluation (crop); conditions: 3 weeks after treatment
Outline: as §1

Zea mays (ZEAMX, maize) = experiment: Pre-emergence herbicidal evaluation (crop); conditions: 3 weeks after treatment
Outline: as §1

weeds = experiment: Post-emergence herbicidal evaluation, overall weed control; conditions: down to the lowest dose of 0.025 kg/ha
Description: These acetone solutions are diluted with water and the resulting formulations applied at dosage levels equivalent of about 0.025 to 0.4 kg per hectare of test compound per pot. After spraying the plants are placed on greenhouse benches and are cared for in the usual manner, commensurate with conventional greenhouse practices. From 3 weeks after treatment, the seedling plants are examined and rated according to the rating system provided above. A rating 0 indicates growth as untreated control, a rating 9 indicates death.

[3] = system: Matricaria inodora (MATIN, mayweed); experiment: Post-emergence herbicidal evaluation; conditions: 3 weeks after treatment
Outline: (§2)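 Injury is scored on a 0–9 scale, where 0 means growth as in untreated controls and 9 means death, from 3 weeks after spraying. Test compound, in acetone diluted with water, is applied at dosages equivalent to about 0.025 to 0.4 kg per hectare per pot, with plants then maintained in the greenhouse.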

[4] = system: Setaria viridis (SETVI, green foxtail); experiment: Post-emergence herbicidal evaluation; conditions: 3 weeks after treatment
Outline: as §2

[5] = system: Galium aparine (GALAP, cleaver); experiment: Post-emergence herbicidal evaluation; conditions: 3 weeks after treatment
Outline: as §2

[6] = system: Alopecurus myosuroides (ALOMY, black grass); experiment: Post-emergence herbicidal evaluation; conditions: 3 weeks after treatment
Outline: as §2

[7] = system: Ipomoea hederacea (IPOHE, morning glory); experiment: Post-emergence herbicidal evaluation; conditions: 3 weeks after treatment
Outline: as §2

[8] = system: Dolium multiflorum (LOLMU, ryegrass); experiment: Post-emergence herbicidal evaluation; conditions: rate 0.100 kg/ha, 3 weeks after treatment
Outline: as §2

[9] = system: Stellaria media (STEME, chickweed); experiment: Post-emergence herbicidal evaluation; conditions: 3 weeks after treatment
Outline: as §2

[10] = system: Abutilon theophrasti (ABUTH, velvetleaf); experiment: Post-emergence herbicidal evaluation; conditions: 3 weeks after treatment
Outline: as §2

[11] = system: Echinochloa grus galli (ECHCG, barnyard grass); experiment: Post-emergence herbicidal evaluation; conditions: 3 weeks after treatment
Outline: as §2

eight weed species = experiment: Pre-emergence herbicidal evaluation, overall weed control; conditions: crop selective dose of 0.1 kg/ha
Description: The pre-emergence herbicidal activity of the compounds of the present invention is exemplified by the following test in which the seeds of a variety of monocotyledonous and dicotyledonous plants are seperately mixed with potting soil and planted on top of approximately one inch of soil in separate post. After planting, the pots are sprayed with the selected aqueous acetone solution. containing test compound in sufficient quantity to provide the equivalent of about 0.025 to 0.4 kg per hectare of test compound per pot. The treated pots are then placed on greenhouse benches, watered and cared for in accordance with conventional greenhouse procedures. From 3 weeks after treatment, the tests are terminated and each pot is examined and rated according to the rating system set forth below.
Thus, there is evidence for the good potential of the compounds of the invention for excellent cross spectrum control of both grasses and broadleaf weeds in key crops.

[12] = system: Matricaria inodora (MATIN, mayweed); experiment: Pre-emergence herbicidal evaluation; conditions: 3 weeks after treatment
Outline: as §1

[13] = system: Setaria viridis (SETVI, green foxtail); experiment: Pre-emergence herbicidal evaluation; conditions: 3 weeks after treatment
Outline: as §1

[14] = system: Galium aparine (GALAP, cleaver); experiment: Pre-emergence herbicidal evaluation; conditions: 3 weeks after treatment
Outline: as §1

[15] = system: Alopecurus myosuroides (ALOMY, black grass); experiment: Pre-emergence herbicidal evaluation; conditions: 3 weeks after treatment
Outline: as §1

[16] = system: Ipomoea hederacea (IPOHE, morning glory); experiment: Pre-emergence herbicidal evaluation; conditions: 3 weeks after treatment
Outline: as §1

[17] = system: Stellaria media (STEME, chickweed); experiment: Pre-emergence herbicidal evaluation; conditions: 3 weeks after treatment
Outline: as §1

[18] = system: Abutilon theophrasti (ABUTH, velvetleaf); experiment: Pre-emergence herbicidal evaluation; conditions: 3 weeks after treatment
Outline: as §1

[19] = system: Echinochloa grus galli (ECHCG, barnyard grass); experiment: Pre-emergence herbicidal evaluation; conditions: 3 weeks after treatment
Outline: as §1

Cc1cc(OCCCSC(F)(F)F)nc(Oc2ccnc(C(F)(F)F)c2)c1 [Example 53]
TRZAW rating ([1]; rate 0.025 kg/ha): 1 (1 - Trace effect) | TRZAW rating ([1]; rate 0.100 kg/ha): 2 (2 - Slight effect) | TRZAW rating ([1]; rate 0.400 kg/ha): 4 (4 - Injury) | GLXMA rating ([2]; rate 0.025 kg/ha): 4 (4 - Injury) | GLXMA rating ([2]; rate 0.100 kg/ha): 4 (4 - Injury) | GLXMA rating ([2]; rate 0.400 kg/ha): 6 (6 - Herbicidal effect) | ZEAMX rating (Zea mays (ZEAMX, maize); rate 0.025 kg/ha): 2 (2 - Slight effect) | ZEAMX rating (Zea mays (ZEAMX, maize); rate 0.100 kg/ha): 4 (4 - Injury) | ZEAMX rating (Zea mays (ZEAMX, maize); rate 0.400 kg/ha): 4 (4 - Injury) | activity against weeds (in words) (weeds): high levels of activity | MATIN rating ([3]; rate 0.025 kg/ha): 6 (6 - Herbicidal effect) | MATIN rating ([3]; rate 0.100 kg/ha): 8 (8 - Approaching complete kill) | MATIN rating ([3]; rate 0.400 kg/ha): 8 (8 - Approaching complete kill) | SETVI rating ([4]; rate 0.025 kg/ha): 9 (9 - Complete kill) | SETVI rating ([4]; rate 0.100 kg/ha): 9 (9 - Complete kill) | SETVI rating ([4]; rate 0.400 kg/ha): 9 (9 - Complete kill) | GALAP rating ([5]; rate 0.025 kg/ha): 6 (6 - Herbicidal effect) | GALAP rating ([5]; rate 0.100 kg/ha): 9 (9 - Complete kill) | GALAP rating ([5]; rate 0.400 kg/ha): 9 (9 - Complete kill) | ALOMY rating ([6]; rate 0.025 kg/ha): 6 (6 - Herbicidal effect) | ALOMY rating ([6]; rate 0.100 kg/ha): 8 (8 - Approaching complete kill) | ALOMY rating ([6]; rate 0.400 kg/ha): 9 (9 - Complete kill) | IPOHE rating ([7]; rate 0.025 kg/ha): 9 (9 - Complete kill) | IPOHE rating ([7]; rate 0.100 kg/ha): 9 (9 - Complete kill) | IPOHE rating ([7]; rate 0.400 kg/ha): 9 (9 - Complete kill) | LOLMU rating [8]: 8 (8 - Approaching complete kill) | STEME rating ([9]; rate 0.025 kg/ha): 8 (8 - Approaching complete kill) | STEME rating ([9]; rate 0.100 kg/ha): 9 (9 - Complete kill) | STEME rating ([9]; rate 0.400 kg/ha): 9 (9 - Complete kill) | ABUTH rating ([10]; rate 0.025 kg/ha): 8 (8 - Approaching complete kill) | ABUTH rating ([10]; rate 0.100 kg/ha): 9 (9 - Complete kill) | ABUTH rating ([10]; rate 0.400 kg/ha): 9 (9 - Complete kill) | ECHCG rating ([11]; rate 0.025 kg/ha): 9 (9 - Complete kill) | ECHCG rating ([11]; rate 0.100 kg/ha): 9 (9 - Complete kill) | ECHCG rating ([11]; rate 0.400 kg/ha): 9 (9 - Complete kill) | weed control (in words) (eight weed species): complete control | MATIN rating ([12]; rate 0.025 kg/ha): 8 (8 - Approaching complete kill) | MATIN rating ([12]; rate 0.100 kg/ha): 8 (8 - Approaching complete kill) | MATIN rating ([12]; rate 0.400 kg/ha): 9 (9 - Complete kill) | SETVI rating ([13]; rate 0.025 kg/ha): 8 (8 - Approaching complete kill) | SETVI rating ([13]; rate 0.100 kg/ha): 8 (8 - Approaching complete kill) | SETVI rating ([13]; rate 0.400 kg/ha): 8 (8 - Approaching complete kill) | GALAP rating ([14]; rate 0.025 kg/ha): 4 (4 - Injury) | GALAP rating ([14]; rate 0.100 kg/ha): 8 (8 - Approaching complete kill) | GALAP rating ([14]; rate 0.400 kg/ha): 8 (8 - Approaching complete kill) | ALOMY rating ([15]; rate 0.025 kg/ha): 8 (8 - Approaching complete kill) | ALOMY rating ([15]; rate 0.100 kg/ha): 8 (8 - Approaching complete kill) | ALOMY rating ([15]; rate 0.400 kg/ha): 8 (8 - Approaching complete kill) | IPOHE rating ([16]; rate 0.025 kg/ha): 8 (8 - Approaching complete kill) | IPOHE rating ([16]; rate 0.100 kg/ha): 8 (8 - Approaching complete kill) | IPOHE rating ([16]; rate 0.400 kg/ha): 9 (9 - Complete kill) | STEME rating ([17]; rate 0.025 kg/ha): 9 (9 - Complete kill) | STEME rating ([17]; rate 0.100 kg/ha): 9 (9 - Complete kill) | STEME rating ([17]; rate 0.400 kg/ha): 9 (9 - Complete kill) | ABUTH rating ([18]; rate 0.025 kg/ha): 9 (9 - Complete kill) | ABUTH rating ([18]; rate 0.100 kg/ha): 9 (9 - Complete kill) | ABUTH rating ([18]; rate 0.400 kg/ha): 9 (9 - Complete kill) | ECHCG rating ([19]; rate 0.025 kg/ha): 7 (7 - Good herbicidal effect) | ECHCG rating ([19]; rate 0.100 kg/ha): 8 (8 - Approaching complete kill) | ECHCG rating ([19]; rate 0.400 kg/ha): 9 (9 - Complete kill)
